For test [1], the target named is SHP-2 enzyme (Met1-Leu525) (Homo sapiens (Human), UniProt Q06124). As to the kind of experiment: SHP2 inhibition enzymatic assay. It is filed as biochemical. As to conditions: read-out: SHP2wt-IC50. An outline of the steps: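 SHP-2 (Met1-Leu525), 0.5 nM, activated with 500 nM IRS1 bis-phosphopeptide, preincubated 30 min with compounds in HEPES pH 7.2 buffer with 5 mM DTT. 75 μM DiFMUP added for 30 min at room temperature, stopped with bpV; fluorescence read. IC50 from four-parameter logistic fit of % inhibition.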
Chain of SHP-2 enzyme (Met1-Leu525) (Q06124 1-525): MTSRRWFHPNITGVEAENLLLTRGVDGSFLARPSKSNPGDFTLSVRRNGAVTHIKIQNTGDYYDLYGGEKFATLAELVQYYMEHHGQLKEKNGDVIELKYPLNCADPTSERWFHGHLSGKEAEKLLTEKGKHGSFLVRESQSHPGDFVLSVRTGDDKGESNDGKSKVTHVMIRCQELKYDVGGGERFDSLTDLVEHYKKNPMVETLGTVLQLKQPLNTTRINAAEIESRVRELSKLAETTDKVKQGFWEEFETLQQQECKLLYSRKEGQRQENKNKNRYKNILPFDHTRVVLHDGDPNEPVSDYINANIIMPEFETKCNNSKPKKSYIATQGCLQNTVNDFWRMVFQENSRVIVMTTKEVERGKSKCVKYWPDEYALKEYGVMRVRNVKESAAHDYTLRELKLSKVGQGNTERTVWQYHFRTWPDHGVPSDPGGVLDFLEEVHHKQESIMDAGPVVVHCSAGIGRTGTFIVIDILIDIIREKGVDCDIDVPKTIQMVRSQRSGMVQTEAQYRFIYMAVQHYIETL

Test [2] relates to ERK phosphorylation in KYSE-520 cells. As to the kind of experiment: Phospho-ERK cellular assay. As to conditions: KYSE-520 cells, 2 h at 37° C., phospho-ERK1/2 (Thr202/Tyr204) TR-FRET, read-out: PERK IC50. It is filed as cell-based. An outline of the steps: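 TR-FRET read-out of ERK1/2 Thr202/Tyr204 phosphorylation was taken after overnight antibody incubation at room temperature. Before that, KYSE-520 cells were treated 2 h at 37 °C with compound dilutions and lysed 30 min. Percent inhibition relative to vehicle and cell-free wells was fitted four-parametrically to give IC50.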
(In TR-FRET formats the signal depends on donor and acceptor labels being close together.)

The mark [3] stands for this setting: 0.5 nM SHP-2 activated by 500 nM IRS1 peptide, 75 μM DiFMUP substrate.

From patent publication US20240109900A1, “AZABICYCLIC SHP2 INHIBITORS” (IRBM S.P.A., priority 2021, published 2024) come the findings set out here.

Read-outs that look alike come from different tables or passages of the source. Bounds are passed on as bounds.

As a reminder, the IC50 is the point on the concentration scale where inhibition reaches its midpoint. Regarding `NC[C@]1(c2ccccc2F)[C@@H]2CCN(c3cnc4c(-c5ccc(O)c(C(F)(F)F)c5)n[nH]c4n3)C[C@@H]21` [Example 360, 4-(6-((1S,6R,7R)-7-(aminomethyl)-7-(2-fluorophenyl)-3-azabicyclo[4.1.0]heptan-3-yl)-1H-pyrazolo[3,4-b]pyrazin-3-yl)-2-(trifluoromethyl)phenol], the concentration for half-maximal inhibition (IC50) was less than 0.5 µM in test [1] (setting [3]) and less than 1 µM in test [2] (Homo sapiens, KYSE-520, 2 h).

Consider `Cn1cc2c(Cl)c(-c3n[nH]c4nc(N5C[C@@H]6[C@H](C5)[C@@]6(CN)c5ncc(F)s5)cnc34)ccc2n1` [Example 489, ((1R,5S,6r)-3-(3-(4-chloro-2-methyl-2H-indazol-5-yl)-1H-pyrazolo[3,4-b]pyrazin-6-yl)-6-(5-fluorothiazol-2-yl)-3-azabicyclo[3.1.0]hexan-6-yl)methanamine], for which the IC50 in test [1] (setting [3]) is less than 0.5 µM; in test [2] (Homo sapiens, KYSE-520, 2 h) it was less than 1 µM.

As to `NC[C@]1(c2ccccc2F)[C@@H]2CCN(c3cnc4nc(Sc5ccnc(-n6cccn6)c5Cl)ccc4n3)C[C@@H]21` [Example 398, ((1S,6R,7R)-3-(6-((3-chloro-2-(1H-pyrazol-1-yl)pyridin-4-yl)thio)pyrido[2,3-b]pyrazin-2-yl)-7-(2-fluorophenyl)-3-azabicyclo[4.1.0]heptan-7-yl)methanamine], the IC50 in test [1] (setting [3]) is less than 0.5 µM; in test [2] (Homo sapiens, KYSE-520, 2 h), less than 1 µM.

With `Cn1cnc2ccc(-c3n[nH]c4nc(N5CC[C@@H]6[C@H](C5)[C@@]6(CN)c5ccccc5F)cnc34)c(Cl)c21` [Example 338, ((1S,6R,7R)-3-(3-(7-chloro-1-methyl-1H-benzo[d]imidazol-6-yl)-1H-pyrazolo[3,4-b]pyrazin-6-yl)-7-(2-fluorophenyl)-3-azabicyclo[4.1.0]heptan-7-yl)methanamine], the IC50 in test [1] (setting [3]) was less than 0.5 µM; in test [2] (Homo sapiens, KYSE-520, 2 h), less than 1 µM.

Regarding `Cc1nc2ccc(-c3n[nH]c4nc(N5CC[C@@H]6[C@H](C5)[C@@]6(CN)c5ccc(F)cn5)cnc34)c(Cl)c2s1` [Example 121, ((1S,6R,7S)-3-(3-(7-chloro-2-methylbenzo[d]thiazol-6-yl)-1H-pyrazolo[3,4-b]pyrazin-6-yl)-7-(5-fluoropyridin-2-yl)-3-azabicyclo[4.1.0]heptan-7-yl)methanamine], the IC50 was less than 0.5 µM in test [1] (setting [3]) and less than 1 µM in test [2] (Homo sapiens, KYSE-520, 2 h).

For `Cn1nccc1C1(CN)C2CCN(c3cnc4c(-c5cccc(Cl)c5Cl)n[nH]c4n3)CC21` (centres unmarked) [Example 97, (3-(3-(2,3-dichlorophenyl)-1H-pyrazolo[3,4-b]pyrazin-6-yl)-7-(1-methyl-1H-pyrazol-5-yl)-3-azabicyclo[4.1.0]heptan-7-yl)methanamine], the IC50 is less than 0.5 µM in test [1] (setting [3]) and less than 1 µM in test [2] (Homo sapiens, KYSE-520, 2 h).

Consider `NC[C@]1(c2ccccc2F)[C@@H]2CCN(c3cnc4c(-c5ccnc(-c6cncnc6)c5Cl)n[nH]c4n3)C[C@@H]21` [Example 284, ((1S,6R,7R)-3-(3-(3-chloro-2-(pyrimidin-5-yl)pyridin-4-yl)-1H-pyrazolo[3,4-b]pyrazin-6-yl)-7-(2-fluorophenyl)-3-azabicyclo[4.1.0]heptan-7-yl)methanamine], for which the IC50 in test [1] (setting [3]) is less than 0.5 µM; in test [2] (Homo sapiens, KYSE-520, 2 h), less than 1 µM.

`NC[C@]1(c2ccccc2F)[C@@H]2CCN(c3cnc4c(-c5ccc6nc(C(F)(F)F)ncc6c5)n[nH]c4n3)C[C@@H]21` [Example 309, ((1S,6R,7R)-7-(2-fluorophenyl)-3-(3-(2-(trifluoromethyl)quinazolin-6-yl)-1H-pyrazolo[3,4-b]pyrazin-6-yl)-3-azabicyclo[4.1.0]heptan-7-yl)methanamine]: the IC50 in test [1] (setting [3]) is less than 0.5 µM; in test [2] (Homo sapiens, KYSE-520, 2 h), greater than 5 µM.

Regarding `NC[C@]1(c2ccccc2F)[C@@H]2CCN(c3cnc4c(-c5ccc6ccncc6c5)n[nH]c4n3)C[C@@H]21` [Example 248, ((1S,6R,7R)-7-(2-fluorophenyl)-3-(3-(isoquinolin-7-yl)-1H-pyrazolo[3,4-b]pyrazin-6-yl)-3-azabicyclo[4.1.0]heptan-7-yl)methanamine], the IC50 in test [1] (setting [3]) is less than 0.5 µM; in test [2] (Homo sapiens, KYSE-520, 2 h), less than 1 µM.

Turning to `Cn1cc2c(Cl)c(-c3n[nH]c4nc(N5CC[C@@H]6[C@H](C5)[C@@]6(CN)c5ccccc5F)cnc34)ccc2n1` [Example 203, ((1S,6R,7R)-3-(3-(4-chloro-2-methyl-2H-indazol-5-yl)-1H-pyrazolo[3,4-b]pyrazin-6-yl)-7-(2-fluorophenyl)-3-azabicyclo[4.1.0]heptan-7-yl)methanamine], the IC50 in test [1] (setting [3]) was less than 0.5 µM; in test [2] (Homo sapiens, KYSE-520, 2 h), less than 1 µM.

For `NCC1(c2ccccc2)C2CCN(c3nc4nc(Sc5ccnc(N)c5Cl)cnc4[nH]3)CC21` (centres unmarked) [Example 69, 4-((2-(7-(aminomethyl)-7-phenyl-3-azabicyclo[4.1.0]heptan-3-yl)-1H-imidazo[4,5-b]pyrazin-5-yl)thio)-3-chloropyridin-2-amine], the IC50 was less than 0.5 µM in test [1] and 1 to 5 µM in test [2] (Homo sapiens).

`NC[C@]1(c2ccccc2F)[C@@H]2CCN(c3cnc4c(-c5ccc(C(N)=O)cc5F)n[nH]c4n3)C[C@@H]21` [Example 367, 4-(6-((1S,6R,7R)-7-(aminomethyl)-7-(2-fluorophenyl)-3-azabicyclo[4.1.0]heptan-3-yl)-1H-pyrazolo[3,4-b]pyrazin-3-yl)-3-fluorobenzamide]: the half-inhibitory concentration (IC50) in test [1] (setting [3]) was less than 0.5 µM; in test [2] (Homo sapiens, KYSE-520, 2 h), less than 1 µM.

As for `NC[C@]1(c2ccccc2F)[C@@H]2CCN(c3cnc4c(-c5cc[nH]c(=O)c5Cl)n[nH]c4n3)C[C@@H]21` [Example 268, 4-(6-((1S,6R,7R)-7-(aminomethyl)-7-(2-fluorophenyl)-3-azabicyclo[4.1.0]heptan-3-yl)-1H-pyrazolo[3,4-b]pyrazin-3-yl)-3-chloropyridin-2(1H)-one], the IC50 is less than 0.5 µM in test [1] (setting [3]) and less than 1 µM in test [2] (Homo sapiens, KYSE-520, 2 h).

Take `Cc1csc(C2(CN)C3CCN(c4cnc5c(-c6ccccc6Cl)n[nH]c5n4)CC32)n1` (centres unmarked) [Example 84, (3-(3-(2-chlorophenyl)-1H-pyrazolo[3,4-b]pyrazin-6-yl)-7-(4-methylthiazol-2-yl)-3-azabicyclo[4.1.0]heptan-7-yl)methanamine]: the IC50 in test [1] (setting [3]) is less than 0.5 µM; in test [2] (Homo sapiens, KYSE-520, 2 h), less than 1 µM.

Regarding `Cn1cc(-c2n[nH]c3nc(N4CC[C@@H]5[C@H](C4)[C@@]5(CN)c4ccccc4F)cnc23)cn1` [Example 347, ((1S,6R,7R)-7-(2-fluorophenyl)-3-(3-(1-methyl-1H-pyrazol-4-yl)-1H-pyrazolo[3,4-b]pyrazin-6-yl)-3-azabicyclo[4.1.0]heptan-7-yl)methanamine], the IC50 in test [1] (setting [3]) was less than 0.5 µM; in test [2] (Homo sapiens, KYSE-520, 2 h), greater than 5 µM.

In the case of `Cc1csc([C@@]2(CN)[C@@H]3CN(c4cnc5c(-c6ccnc(N)c6Cl)n[nH]c5n4)C[C@@H]32)n1` [Example 517], the IC50 in test [1] (setting [3]) is less than 0.5 µM; in test [2] it was less than 1 µM.

In the case of `NCC1(c2ncccn2)C2CCN(c3nc4nc(Sc5cccnc5C(F)(F)F)cnc4[nH]3)CC21` (centres unmarked) [Example 66, (7-(pyrimidin-2-yl)-3-(5-((2-(trifluoromethyl)pyridin-3-yl)thio)-1H-imidazo[4,5-b]pyrazin-2-yl)-3-azabicyclo[4.1.0]heptan-7-yl)methanamine], the IC50 in test [1] (setting [3]) is less than 0.5 µM; in test [2] (Homo sapiens, KYSE-520, 2 h) it was less than 1 µM.

Consider `Cn1cnc2ccc(-c3ccc4nc(N5CC[C@@H]6[C@H](C5)[C@@]6(CN)c5ccccc5F)cnc4n3)cc21` [Example 436, ((1S,6R,7R)-7-(2-fluorophenyl)-3-(6-(1-methyl-1H-benzo[d]imidazol-6-yl)pyrido[2,3-b]pyrazin-2-yl)-3-azabicyclo[4.1.0]heptan-7-yl)methanamine], for which the IC50 in test [1] (setting [3]) was less than 0.5 µM; in test [2] (Homo sapiens, KYSE-520, 2 h), less than 1 µM.

For the compound `CC(=O)NC[C@]1(c2ccccc2F)[C@@H]2CCN(c3cnc4c(-c5ccc6nn(C)cc6c5)n[nH]c4n3)C[C@@H]21` [Example 383, N-(((1S,6R,7R)-7-(2-fluorophenyl)-3-(3-(2-methyl-2H-indazol-5-yl)-1H-pyrazolo[3,4-b]pyrazin-6-yl)-3-azabicyclo[4.1.0]heptan-7-yl)methyl)acetamide], the IC50 in test [1] (setting [3]) was greater than 3 µM; in test [2] (Homo sapiens, KYSE-520, 2 h), less than 1 µM.

Take `NC[C@]1(c2ccccc2F)[C@@H]2CCN(c3cnc4c(-c5ccc(C(N)=O)c6ncccc56)n[nH]c4n3)C[C@@H]21` [Example 220, 5-(6-((1S,6R,7R)-7-(aminomethyl)-7-(2-fluorophenyl)-3-azabicyclo[4.1.0]heptan-3-yl)-1H-pyrazolo[3,4-b]pyrazin-3-yl)quinoline-8-carboxamide]: the IC50 in test [1] (setting [3]) is less than 0.5 µM; in test [2] (Homo sapiens, KYSE-520, 2 h) it was less than 1 µM.

As for `NCC1(c2cccnc2)C2CCN(c3cnc4c(-c5cccc(Cl)c5Cl)n[nH]c4n3)CC21` (centres unmarked) [Example 2, [3-[3-(2,3-dichlorophenyl)-1H-pyrazolo[3,4-b]pyrazin-6-yl]-7-(pyridin-3-yl)-3-azabicyclo[4.1.0]heptan-7-yl]methanamine], the IC50 in test [1] (setting [3]) is less than 0.5 µM; in test [2] (Homo sapiens, KYSE-520, 2 h), less than 1 µM.

`NC[C@]1(c2ccccc2F)[C@@H]2CCN(c3cnc4c(-c5ccc6nccc(=O)n6c5)n[nH]c4n3)C[C@@H]21` [Example 260, 7-(6-((1S,6R,7R)-7-(aminomethyl)-7-(2-fluorophenyl)-3-azabicyclo[4.1.0]heptan-3-yl)-1H-pyrazolo[3,4-b]pyrazin-3-yl)-4H-pyrido[1,2-a]pyrimidin-4-one]: the IC50 in test [1] (setting [3]) was less than 0.5 µM; in test [2] (Homo sapiens, KYSE-520, 2 h), greater than 5 µM.
